Our source for the IC50 values is patent publication US9649309B2 (priority 2014, dated 2017).

For one assay, the target named is Axl (Homo sapiens (Human), UniProt P30530). The note with it: read-out: IC50 Axl.
The next assay addresses Tyro3 (Homo sapiens (Human), UniProt Q06418). To be noted: read-out: IC50 Tyro3.

Sequence of Tyro3 (Q06418 41-890 limits assumed): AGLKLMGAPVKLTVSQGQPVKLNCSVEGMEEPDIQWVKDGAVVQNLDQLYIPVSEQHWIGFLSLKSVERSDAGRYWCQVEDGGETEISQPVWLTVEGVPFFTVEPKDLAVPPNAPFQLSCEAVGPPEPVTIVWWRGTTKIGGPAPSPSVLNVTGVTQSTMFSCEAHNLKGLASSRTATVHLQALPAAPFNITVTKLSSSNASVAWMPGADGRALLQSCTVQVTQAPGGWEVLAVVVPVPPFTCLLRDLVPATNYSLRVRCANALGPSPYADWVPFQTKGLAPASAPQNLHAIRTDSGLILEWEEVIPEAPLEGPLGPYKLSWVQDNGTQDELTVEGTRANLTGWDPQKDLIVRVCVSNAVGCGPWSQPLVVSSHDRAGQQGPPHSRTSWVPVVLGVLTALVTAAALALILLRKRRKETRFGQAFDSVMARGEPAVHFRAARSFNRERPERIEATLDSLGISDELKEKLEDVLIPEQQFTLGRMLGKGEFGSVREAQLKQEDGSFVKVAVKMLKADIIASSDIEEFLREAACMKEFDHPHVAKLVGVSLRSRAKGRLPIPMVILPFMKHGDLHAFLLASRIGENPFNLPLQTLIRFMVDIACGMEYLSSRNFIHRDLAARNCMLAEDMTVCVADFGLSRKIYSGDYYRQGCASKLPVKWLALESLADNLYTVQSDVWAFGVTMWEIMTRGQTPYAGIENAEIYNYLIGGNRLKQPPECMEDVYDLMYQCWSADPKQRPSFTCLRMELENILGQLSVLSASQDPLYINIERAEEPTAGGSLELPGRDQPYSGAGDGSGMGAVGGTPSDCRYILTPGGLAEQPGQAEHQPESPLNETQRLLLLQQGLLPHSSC
Sequence of Axl (P30530 26-894 limits assumed): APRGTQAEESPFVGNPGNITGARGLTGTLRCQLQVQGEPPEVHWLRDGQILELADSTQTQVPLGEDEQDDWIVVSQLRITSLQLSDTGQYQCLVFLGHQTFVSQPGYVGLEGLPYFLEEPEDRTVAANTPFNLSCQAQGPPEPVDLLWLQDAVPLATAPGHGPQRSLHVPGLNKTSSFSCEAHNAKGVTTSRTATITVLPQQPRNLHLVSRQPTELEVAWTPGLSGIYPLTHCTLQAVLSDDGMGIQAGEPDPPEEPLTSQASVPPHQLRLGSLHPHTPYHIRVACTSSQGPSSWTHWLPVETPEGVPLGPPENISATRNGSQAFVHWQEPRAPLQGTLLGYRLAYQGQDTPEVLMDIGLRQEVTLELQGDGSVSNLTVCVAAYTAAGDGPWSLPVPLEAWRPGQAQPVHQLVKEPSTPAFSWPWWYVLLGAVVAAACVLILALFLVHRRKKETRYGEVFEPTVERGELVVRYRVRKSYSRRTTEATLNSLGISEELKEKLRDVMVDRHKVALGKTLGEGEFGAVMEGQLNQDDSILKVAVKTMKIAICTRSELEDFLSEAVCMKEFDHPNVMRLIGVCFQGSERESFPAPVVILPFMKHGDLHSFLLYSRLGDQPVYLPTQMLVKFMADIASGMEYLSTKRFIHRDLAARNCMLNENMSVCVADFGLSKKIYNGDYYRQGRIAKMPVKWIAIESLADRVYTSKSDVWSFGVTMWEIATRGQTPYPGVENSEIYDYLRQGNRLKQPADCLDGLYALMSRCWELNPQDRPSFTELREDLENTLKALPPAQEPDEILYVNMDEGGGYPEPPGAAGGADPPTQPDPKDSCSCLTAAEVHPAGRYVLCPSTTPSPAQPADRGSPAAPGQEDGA

For orientation: IC50 means the point on the concentration scale where inhibition reaches its midpoint. In the case of `CCCCNc1ncc(-c2cnc(N)c(OC)n2)c(N[C@H]2CC[C@H](O)CC2)n1` [UNC3043A], the IC50 turned out to be 2.31 µM at Axl and 1.64 µM on Tyro3.
On to `CCCCNc1ncc(C(=O)NCC2CCN(C(C)C)CC2)c(N[C@H]2CC[C@H](O)CC2)n1` [UNC4289A], for which the results for the IC50 at Axl and on Tyro3 were 0.42 µM and 0.178 µM, respectively.
`CCCCNc1ncc(-c2ccc(C=C3CCN(C)CC3)cn2)c(N[C@H]2CC[C@H](O)CC2)n1` [UNC4338A]: the IC50 at Axl is 0.042 µM; on Tyro3, 0.02 µM.
For `CCCCNc1ncc(C(=O)NCc2ccc(-c3ccc(OC)cc3)nc2)c(N[C@H]2CC[C@H](O)CC2)n1` [UNC4238A] the same measures were 0.698 µM and 0.242 µM.
The like results for `C=CCN1CCC(CNC(=O)c2cnc(NCCCC)nc2N[C@H]2CC[C@H](O)CC2)CC1` [UNC4303A] were, in that order, 0.777 µM and 0.486 µM.
Take `CCCCNc1ncc(-c2ccc(NC(=O)C3CCCCC3)cn2)c(NC2CCC(O)CC2)n1` (centres unmarked) [UNC2712A]: the IC50 worked out at 0.364 µM on Axl and 0.209 µM at Tyro3.
For `CCCCNc1ncc(-c2ccc(C3(N4CCOCC4)CCCC3)cn2)c(NC2CCC(O)CC2)n1` (centres unmarked) [UNC3667A] the same measures were 0.047 µM and 0.0074 µM.
For `CCCC1(Nc2ncc(-c3ccc(CN4CCN(C)CC4)cn3)c(NC3CCC(O)CC3)n2)CC1` (centres unmarked) [UNC3668A] the same measures were 5.3 µM and 0.409 µM.
The like results for `CCCCNc1ncc(-c2cn(C(c3ccccc3)(c3ccccc3)c3ccccc3)cn2)c(N[C@H]2CC[C@H](O)CC2)n1` [UNC3117A] were, in that order, 30 µM and 30 µM.
For the molecule `CCCCNc1ncc(-c2ccc(CN3C[C@H](C)NC[C@H]3C)cn2)c(NC2CCC(O)CC2)n1` (some centres unmarked) [UNC4109A], the half-inhibitory concentration (IC50) on Axl was found to be 0.119 µM; on Tyro3 it was 0.028 µM.
In the case of `CCCCNc1ncc(C(=O)NCC2CCCCC2)c(N[C@H]2CC[C@H](O)CC2)n1` [UNC2603A], the results for the half-inhibitory concentration (IC50) at Axl and on Tyro3 were 1.12 µM and 0.506 µM, respectively.
With `CCCCNc1ncc(-c2ccc(CNC34CC5CC(CC(C5)C3)C4)cn2)c(N[C@H]2CC[C@H](O)CC2)n1` [UNC4166A], the figures for the IC50 on Axl and at Tyro3 were 0.013 µM and 0.0094 µM, respectively.
Take `CCCCNc1ncc(-c2cc(NC)ncn2)c(N[C@H]2CC[C@H](O)CC2)n1` [UNC3126A]: the values for the IC50 on Axl and at Tyro3 were 0.364 µM and 0.109 µM, respectively.
For `CCCCNc1ncc(-c2ccc(CCN3CCCC3)cn2)c(N[C@H]2CC[C@H](O)CC2)n1` [UNC4221A], the IC50 at Axl is 0.104 µM; on Tyro3, 0.043 µM.
In the case of `CCCCNc1ncc(C(=O)NCC2CCN(C3CCCCC3)CC2)c(N[C@H]2CC[C@H](O)CC2)n1` [UNC4302A], the IC50 stood at 0.292 µM on Axl and 0.153 µM on Tyro3.
As to `CCCCNc1ncc(-c2ncc(CN3CCN(C)CC3)s2)c(N[C@H]2CC[C@H](O)CC2)n1` [UNC3121A], the figures for the IC50 at Axl and at Tyro3 were 0.096 µM and 0.071 µM, respectively.
For `CCCCNc1ncc(-c2nc(C(=O)O)cs2)c(N[C@H]2CC[C@H](O)CC2)n1` [UNC3139A] the same measures were 4.54 µM and 2.55 µM.
For `CCCCNc1ncc(C(=O)NC2CCN(Cc3ccc(N4CCOCC4)cc3)CC2)c(N[C@H]2CC[C@H](O)CC2)n1` [UNC2918A] the same measures were 0.667 µM and 0.145 µM.
Regarding `CCCCNc1ncc(C(=O)NCc2cccc3ccccc23)c(N[C@H]2CC[C@H](O)CC2)n1` [UNC2763A], the IC50 stood at 1.09 µM on Axl and 0.502 µM on Tyro3.
As to `CCCCNc1ncc(-c2nccnc2N)c(N[C@H]2CC[C@H](O)CC2)n1` [UNC3119A], the IC50 on Axl was determined as 30 µM; on Tyro3, 9.62 µM.
The like results for `CCCCNc1ncc(C(=O)NC2CCN(CC3CCCC3)CC2)c(N[C@H]2CC[C@H](O)CC2)n1` [UNC2878A] were, in that order, 0.191 µM and 0.166 µM.
For `O[C@H]1CC[C@H](Nc2nc(NCCC3CC3)ncc2-c2ccc(CN3CCCC3)cn2)CC1` [UNC4197A] the same measures were 0.043 µM and 0.024 µM.
For `CCCCNc1ncc(-c2ccc(N3CCN(C(=O)OC(C)(C)C)CC3)nn2)c(N[C@H]2CC[C@H](O)CC2)n1` [UNC3071A] the same measures were 0.275 µM and 0.298 µM.
Regarding `CCCCNc1ncc(C(=O)NCC2CCNCC2)c(N[C@H]2CC[C@H](O)CC2)n1` [UNC4287A], the IC50 on Axl was 0.96 µM; on Tyro3, 0.494 µM.
Turning to `CCCCNc1ncc(C(=O)Nc2ccc(CCN3CCOCC3)cc2)c(N[C@H]2CC[C@H](O)CC2)n1` [UNC2805A], the IC50 at Axl amounted to 0.409 µM; on Tyro3, 0.184 µM.
For `CCCCNc1ncc(C(=O)NCc2ccc(N3CCOCC3)cc2)c(N[C@H]2CC[C@H](O)CC2)n1` [UNC2804A] the same measures were 0.592 µM and 0.21 µM.
With `CCCCNc1ncc(-c2cc(Cl)c(CN3CCCC3)cn2)c(N[C@H]2CC[C@H](O)CC2)n1` [UNC4222A], the IC50 on Axl came to 0.039 µM; at Tyro3, 0.016 µM.
Take `CCCCNc1ncc(-c2cnc(SC)cn2)c(N[C@H]2CC[C@H](O)CC2)n1` [UNC3074A]: the IC50 on Axl stood at 0.754 µM; at Tyro3, 0.255 µM.
The like results for `CCCCNc1ncc(-c2cc(Nc3cccc(C(C)(C)C)c3)ncn2)c(N[C@H]2CC[C@H](O)CC2)n1` [UNC4333A] were, in that order, 30 µM and 0.867 µM.
Turning to `CCCCNc1ncc(C(=O)NCc2ccc(-n3ccnc3-c3ccccc3)cc2)c(N[C@H]2CC[C@H](O)CC2)n1` [UNC2957A], the figures for the IC50 at Axl and at Tyro3 were 0.593 µM and 0.975 µM, respectively.
The like results for `CCCCNc1ncc(-c2ncc(C(N)=O)s2)c(N[C@H]2CC[C@H](O)CC2)n1` [UNC3134A] were, in that order, 0.146 µM and 0.062 µM.
Regarding `CCCCNc1ncc(-c2ccc(N3CCCC3)nn2)c(N[C@H]2CC[C@H](O)CC2)n1` [UNC3044A], the IC50 is 0.912 µM at Axl and 0.377 µM at Tyro3.
The like results for `CCCCNc1ncc(-c2cc(Nc3cccc(-c4ccccc4)c3)ncn2)c(N[C@H]2CC[C@H](O)CC2)n1` [UNC4353A] were, in that order, 30 µM and 15.1 µM.
Turning to `CCCCNc1ncc(-c2cc(N)ncn2)c(N[C@H]2CC[C@H](O)CC2)n1` [UNC3072A], the values for the half-inhibitory concentration (IC50) on Axl and at Tyro3 were 0.123 µM and 0.043 µM, respectively.
The like results for `CCCCNc1ncc(C(=O)NC2CCN(CCCc3ccccc3)CC2)c(N[C@H]2CC[C@H](O)CC2)n1` [UNC2801A] were, in that order, 0.205 µM and 0.113 µM.
With `CCCCNc1ncc(-c2ccc(C=O)o2)c(N[C@H]2CC[C@H](O)CC2)n1` [UNC2902A, 5-(2-(Butylamino)-4-((trans-4-hydroxycyclohexyl)amino)pyrimidin-5-yl)furan-2-carbaldehyde], the IC50 on Axl was 1.63 µM; at Tyro3, 0.241 µM.
The like results for `CCCCNc1ncc(C(=O)NCc2ccc3ccccc3n2)c(N[C@H]2CC[C@H](O)CC2)n1` [UNC4286A] were, in that order, 0.572 µM and 0.253 µM.
The like results for `CCCCNc1ncc(-c2ccc(OC)nn2)c(N[C@H]2CC[C@H](O)CC2)n1` [UNC3049A] were, in that order, 4.44 µM and 0.221 µM.
For `CCCCNc1ncc(-c2ccccn2)c(NCCO)n1` [UNC2997A] the same measures were 30 µM and 20 µM.
As for `CCCCNc1ncc(-c2ccc(CN3CCN[C@@H](C)C3)cn2)c(NC2CCC(O)CC2)n1` (some centres unmarked) [UNC4106A], the IC50 turned out to be 0.047 µM at Axl and 0.022 µM on Tyro3.
For `CCCCNc1ncc(-c2nc(C(N)=O)cs2)c(N[C@H]2CC[C@H](O)CC2)n1` [UNC3136A] the same measures were 0.237 µM and 0.076 µM.
Take `OCCCCNc1ncc(-c2nccs2)c(N[C@H]2CC[C@H](O)CC2)n1` [UNC3146A]: the IC50 worked out at 0.984 µM on Axl and 1.01 µM at Tyro3.
`CCCCNc1ncc(-c2ccc(C3=CCNCC3)cn2)c(N[C@H]2CC[C@H](O)CC2)n1` [UNC4354A]: the 50% inhibitory concentration (IC50) on Axl was 0.027 µM; at Tyro3 it was 0.024 µM.
For `CCCCNc1ncc(-c2cncc(NC3CCCCC3)n2)c(N[C@H]2CC[C@H](O)CC2)n1` [UNC3137A] the same measures were 1.23 µM and 0.412 µM.
Regarding `CCCCNc1ncc(C(=O)NCc2ccc(-c3cccc(OC)c3)nc2)c(N[C@H]2CC[C@H](O)CC2)n1` [UNC4246A], the IC50 at Axl is 0.489 µM; on Tyro3, 0.244 µM.
Regarding `CCCCNc1ncc(-c2ccc(CCCN3CCCC3)cn2)c(N[C@H]2CC[C@H](O)CC2)n1` [UNC4220A], the concentration for half-maximal inhibition (IC50) on Axl was 0.122 µM; at Tyro3, 0.068 µM.
The like results for `CCCCNc1ncc(-c2cnc(N)cn2)c(N[C@H]2CC[C@H](O)CC2)n1` [UNC3041A] were, in that order, 0.968 µM and 0.605 µM.
For `CCCCNc1ncc(C(=O)NCc2ccc(-n3cnc(C)c3)cc2)c(N[C@H]2CC[C@H](O)CC2)n1` [UNC2956A] the same measures were 0.136 µM and 0.2 µM.
As for `CCCCNc1ncc(C(=O)NCc2ccc(-c3cccnc3)nc2)c(N[C@H]2CC[C@H](O)CC2)n1` [UNC4236A], the IC50 came to 0.216 µM on Axl and 0.092 µM at Tyro3.
Take `CCCCNc1ncc(C(=O)NCc2ccc(C3=CCCCC3)nc2)c(N[C@H]2CC[C@H](O)CC2)n1` [UNC4256A]: the concentration for half-maximal inhibition (IC50) at Axl was 0.743 µM; on Tyro3 it was 0.34 µM.
On to `CCCCNc1ncc(-c2cc(Nc3ccc(OC)cc3)ncn2)c(N[C@H]2CC[C@H](O)CC2)n1` [UNC4269A], for which the values for the 50% inhibitory concentration (IC50) at Axl and at Tyro3 were 0.513 µM and 0.234 µM, respectively.
The like results for `CCCCNc1ncc(-c2cc(Nc3cccc(OC)c3)ncn2)c(N[C@H]2CC[C@H](O)CC2)n1` [UNC4270A] were, in that order, 0.158 µM and 0.121 µM.
The like results for `CCCCNc1ncc(C(=O)NCc2ccc(-n3cnc(CO)c3)cc2)c(N[C@H]2CC[C@H](O)CC2)n1` [UNC3183A] were, in that order, 0.703 µM and 0.372 µM.
The like results for `CCCCNc1ncc(C(=O)NCC2CCN(c3ccccc3)CC2)c(N[C@H]2CC[C@H](O)CC2)n1` [UNC4304A] were, in that order, 0.664 µM and 0.333 µM.
For the molecule `CCCCNc1ncc(C(=O)NCc2ccc(-n3cccn3)cc2)c(N[C@H]2CC[C@H](O)CC2)n1` [UNC2744A], the IC50 stood at 0.277 µM on Axl and 0.172 µM on Tyro3.
